Assay results as given in patent publication US20250154193A1, “STEROID COMPOUND, AND PREPARATION METHOD THEREFOR AND APPLICATION THEREOF” (CHOLESGEN (SHANGHAI) CO., LTD., priority 2022, published 2025).

Key:
liver organoids = experiment: Real-time quantitative PCR of lipogenesis- and fibrosis-related genes in fatty liver organoids; type: cell-based, mice; conditions: mouse fatty liver organoids, 1 and 3 μM, 72 hours, qPCR
Source text: Liver samples or liver organoid samples were homogenized in TRI Reagent (T9424, Sigma), and total RNA was extracted according to the manufacturer's instructions. Equal amounts of RNA template were used to synthesize cDNA with oligo dT primers and MLV reverse transcriptase (Promega). Quantitative data for genes were collected using the Bio-Rad CFX96 real-time PCR system, and the relative amount of gene mRNA was quantified using the comparative CT method.
C57BL/6N mice were fed with fatty liver-inducing diet (TrophicDiet, TP2630052A, containing 10.2% kcal protein, 37.3% kcal carbohydrate, and 52.6% kcal fat) and fructose-containing drinking water (23.1 g of fructose and 18.9 g of dextrose were dissolved in 1 L of water, then filtered and sterilized) for a total of 16 weeks starting at 12 weeks of age to generate a fatty liver model. To generate fatty liver organoids, liver tissues from mice with fatty liver were minced and digested in digestion buffer at 37° C. for 30 to 60 minutes. The digestion buffer included DMEM/F-12 (Cytiva, SH30023.01), 2.5 mg/mL collagenase D (Roche, COLLD-RO), and 0.1 mg/mL DNaseI (Sigma-Aldrich, DN25). […]
To distinguish whether the inhibitory effect of 25-hydroxylanosterol is directly based on its effect on the liver or a systemic effect, we utilized 3D liver organoids as an in vitro model for the study of fatty liver to analyze the effect of 25-hydroxylanosterol on lipogenesis and fibrosis marker expression in liver organoids. […] RNA from the organoids was collected and analyzed for the differential expression of lipogenesis-related genes (Hmgcs, Hmgcr, SCD1, and FASN) and fibrosis markers (αSMA and Colla1) using fluorescent real-time quantitative PCR.
In FIGS. 35 and 36, data are represented as mean±standard deviation. P values were calculated using one-way ANOVA; ns indicates no statistical difference; * indicates P<0.05; ** indicates P<0.01; *** indicates P<0.001. In FIGS. 47 and 53, quantitative analysis was performed using ImageJ software. […] P values were calculated using one-way ANOVA; * indicates P<0.05; ** indicates P<0.01; *** indicates P<0.001.

SREBP pathway = experiment: SREBP luciferase reporter gene system (SRE-luciferase assay) in Huh-7/SRE-Luc cells; type: cell-based; conditions: Homo sapiens, sterol-deficient medium, compound treatment 16 hours, luciferase/GFP ratio
Procedure, shortened: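 Huh-7 cells stably carrying an LDLR promoter (SRE)-luciferase and GFP were treated for 16 hours in sterol-deficient medium (5% lipoprotein-deficient serum, 2 μM lovastatin, 10 μM mevalonate) at […] compound, with DMSO vehicle. IC50 derived from the ratio of luciferase activity to GFP fluorescence.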

[1] = Liver microsomal metabolic stability assay; type: in vitro ADME; conditions: rat liver microsomes, NADPH, 37° C., 0-60 minutes; read-out: Rat microsomal metabolic half-life (t1/2)
Description: PBS solution (100 mM), MgCl2 solution (100 mM), and NADPH solution (20 mM) were prepared respectively. Compound and testosterone (positive control) stock solutions were then prepared with dimethyl sulfoxide (DMSO), diluted to 100 µM with methanol for sample incubation, and stored at −10 to −30° C. 12.5 μL of rat liver microsomes (purchased from XenoTech, Cat. No.: R1000, Lot No.: 1310030, specification: 20 mg/mL), 432.5 µL of PBS solution (100 mM), 25 µL of NADPH solution (20 mM), and 25 μL of MgCl2 solution (100 mM) were added to a 96-well plate, mixed well, and pre-incubated at 37° C. for 5 minutes. 5 µL of substrate (test compound) solution was added to start the reaction. At specified time points of 0, 5, 15, 30, 45, and 60 minutes (0 and 60 minutes for the negative control group), 50 µL of the incubated samples were added to a stop plate containing 100 µL of ice-cold stop solution, vortexed for 1 minute to inactivate the reaction, and stored at −60 to −90° C. for subsequent analysis. Sample analysis of the test compound and the control compound testosterone was performed using LC-MS/MS method. Chromatographic peaks were integrated, calculated, and processed using Analyst software. Semi-quantitative analysis was performed for both the test compound and the control compound testosterone by calculating peak area ratios.

Compound	expression levels of lipogenesis-related genes (Hmgcs, Hmgcr, SCD1, and FASN) (liver organoids)	IC50 (SREBP pathway) [µM]	half-life at 1 µM [1] [h]
CC[C@H]1[C@@H](O)[C@@H]2[C@H](CC[C@]3(C)[C@@H]([C@H](C)CCC(=O)O)CC[C@@H]23)[C@@]2(C)CC[C@@H](O)C[C@@H]12 [obeticholic acid, Obeticholic acid, reference compound]	failed to inhibit		
COc1cc(F)ccc1C(O)CCC[C@@H](C)[C@H]1CC[C@H]2[C@@H]3CC[C@H]4[C@@H](O)[C@@H](O)CC[C@]4(C)[C@H]3CC[C@]12C (stereo partly drawn) [compound 306, 24-[(4-fluoro-2-methoxyphenyl)(hydroxy)methyl]-5α-cholan-3β,4β-diol]		0.08	1.74
